The source of these data is patent publication US7745390B2, “Antimicrobial peptides” (priority 2005, dated 2010).

Square brackets hold non-standard residues; d marks the D form. Ends that are not written are not given here. Peptide text beside a SMILES is read from it. A value given as a limit tells only on which side of the number the result lay.

The subject of assay [1] is bacteria. In words: Activity in serum containing media (10% FCS in DMEM or RPMI). In kind it is cell-based. The settings on record: 10% FCS in DMEM or RPMI. On the procedure: (§1) The CFU assay is the “gold standard” for evaluating antibiotics. Briefly, bacteria are grown overnight in rich medium, such as LB, and then diluted and grown in log phase for 2-4 hours. Cultures are set up as above, with the initial culture media being 10 mM phosphate buffer/0.03% LB; DMEM or RPMI; or DMEM or RPMI plus 10% serum (fetal calf, human, or mouse). After various periods of time, but generally 3 hours or less, aliquots are removed, diluted in LB at various dilutions, and plated on LB agar plates. Plates are incubated overnight at 37° C. and counted on an automatic colony counter.
Tests were conducted in low salt concentrations so that active peptide candidates could be identified more readily. It is important for in vivo applications that the present antimicrobial peptides be active in physiological salt concentrations (150 mM) as well as in the presence of other tissue components, such as blood plasma (serum). Serum may contain proteases that destroy peptides; the use of D-amino acids can improve protease resistance. See G12.21. […] Also active were G11.6, G11.26, G11.29, G11.30, G11.34, G11.35, G12.11, G12.19, G12.20 and G12.21. […]

Another assay deals with Salmonella. In kind it is cell-based, S. typhimurium. The settings on record: pH 7.2. In short, it runs like this: (§2)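 First, peptides in 10 mM phosphate pH 7.2 with 0.03% LB meet bacteria (~5×10^6 CFU/ml). Second, incubation runs 3 h at 37 °C. Third, LB is added and plates grow overnight before OD600 reading.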
The next assay deals with B. cereus. Format: cell-based. Particulars: pH 7.2. In short, it runs like this:
as §2

For the next assay, the system named is E. coli DH5a. In kind it is cell-based. Particulars: DH5a, pH 7.2. In short, it runs like this:
as §2

Assay [2] relates to bacteria. Kind of assay: Activity in DMEM and RPMI media (lysis of bacteria). Further details: key to Active in DMEM: YES: Active in DMEM; a blank means no activity. The settings on record: for Active in DMEM: Table 2, tested in DMEM and RPMI; for antimicrobial / antibacterial activity: medium not stated. Format: cell-based. The method, then: as §1
In the column “Active in DMEM”, a blank means no activity. MAP stands for multiple antigenic peptide, where a number of identical peptide chains are synthesized and joined to a common core (like a dendrimer).
The peptides listed in Table 2 were tested in DMEM and RPMI, media that approximate blood and tissue conditions in vivo and those that were active under these conditions are listed in the last column (active in DMEM). […] No peptides that were all L-isomer peptides lysed bacteria in DMEM supplemented with serum.
The hydrophobic moment is a measure of amphipathicity and indicates how well the hydrophobic residues fall on one side of the helix while the hydrophilic residues fall on the opposite side is shown in column 7. This was determined using the Membrane Explorer Program (http://blanco.biomol.uci.edu/mpex/). A high number indicates a high hydrophobic moment. Column 8 again (like Table 2) indicates which of these peptides is active in DMEM.

Consider `CSCC[C@H](NC(=O)[C@H](Cc1ccccc1)NC(=O)[C@@H](CCCNC(=N)N)NC(=O)[C@@H](CCCNC(=N)N)NC(=O)[C@H](CO)NC(=O)[C@@H](NC(=O)[C@H](CC(=O)O)NC(=O)[C@H](CCCNC(=N)N)NC(=O)[C@H](Cc1c[nH]c2ccccc12)NC(=O)[C@H](CCCNC(=N)N)NC(=O)[C@H](CO)NC(=O)[C@H](CCCNC(=N)N)NC(=O)CNC(=O)[C@@H](NC(=O)[C@H](CCCNC(=N)N)NC(=O)[C@H](CO)NC(=O)[C@@H](NC(=O)[C@H](CCCNC(=N)N)NC(=O)[C@@H](NC(=O)[C@@H](C)NC(=O)[C@@H](C)NC(=O)[C@H](CCCNC(=N)N)NC(=O)[C@H](CO)NC(=O)[C@@H](NC(=O)[C@H](CO)NC(=O)[C@H](CCCNC(=N)N)NC(=O)[C@@H](N)CCC(N)=O)C(C)C)[C@@H](C)O)C(C)C)[C@@H](C)O)C(C)C)C(=O)N[C@@H](CCCNC(=N)N)C(=O)N[C@@H](CCCNC(=N)N)C(=O)O` [Peptide G8.8, QRSVSRaaTRVSRTGRSRWRDVSrrFMRR] (H-QRSVSR[dA][dA]TRVSRTGRSRWRDVS[dR][dR]FMRR-OH; N-terminus and C-terminus assumed), for which the “active in serum containing media” value with bacteria [1] is on record as “active”. In addition, in the assay with Salmonella, half-maximal inhibition (IC50) was put at 420 nM and the “Salmonella MIC” value is 0.7 µM. Besides, in the assay on B. cereus, the “B. cereus MIC” value stood at 2.5 µM and the IC50 stood at 1700 nM. Further, in the assay on E. coli DH5a, the “E. coli DH5a MIC” value amounted to 0.35 µM and 210 nM corresponded to half-maximal inhibition (IC50). In addition, the “Active in DMEM” value with bacteria [2] is “YES”.

For the molecule `CSCC[C@H](NC(=O)[C@H](Cc1ccccc1)NC(=O)[C@@H](CCCNC(=N)N)NC(=O)[C@@H](CCCNC(=N)N)NC(=O)[C@H](CO)NC(=O)[C@@H](NC(=O)[C@H](CC(=O)O)NC(=O)[C@H](CCCNC(=N)N)NC(=O)[C@H](Cc1c[nH]c2ccccc12)NC(=O)[C@H](CCCNC(=N)N)NC(=O)[C@H](CO)NC(=O)[C@H](CCCNC(=N)N)NC(=O)CNC(=O)[C@@H](NC(=O)[C@H](CCCNC(=N)N)NC(=O)[C@H](CO)NC(=O)[C@@H](NC(=O)[C@H](CCCNC(=N)N)NC(=O)[C@@H](NC(=O)[C@@H]1CCCN1C(=O)[C@@H]1CCCN1C(=O)[C@H](CCCNC(=N)N)NC(=O)[C@H](CO)NC(=O)[C@@H](NC(=O)[C@H](CO)NC(=O)[C@H](CCCNC(=N)N)NC(=O)[C@@H](N)CCC(N)=O)C(C)C)[C@@H](C)O)C(C)C)[C@@H](C)O)C(C)C)C(=O)N[C@@H](CCCNC(=N)N)C(=O)N[C@@H](CCCNC(=N)N)C(=O)O` [Peptide G8.11] (H-QRSVSRPPTRVSRTGRSRWRDVS[dR][dR]FMRR-OH; N-terminus and C-terminus assumed), in the assay with bacteria [1], the “active in serum containing media” value is listed as “active”. In the assay with Salmonella, the midpoint of inhibition, the IC50, lay at 220 nM and the “Salmonella MIC” value came to 0.35 µM. Moreover, in the assay with B. cereus, the “B. cereus MIC” value came to 0.75 µM and the IC50 was found to be 450 nM. Further, in the assay on E. coli DH5a, the “E. coli DH5a MIC” value worked out at 0.35 µM and the IC50 was determined as 210 nM. In addition, the “Active in DMEM” value with bacteria [2] is listed as “YES”.

As to `CSCC[C@H](NC(=O)[C@H](Cc1ccccc1)NC(=O)[C@@H](CCCNC(=N)N)NC(=O)[C@@H](CCCNC(=N)N)NC(=O)[C@H](CO)NC(=O)[C@H](NC(=O)[C@@H](CCCNC(=N)N)NC(=O)[C@@H](N)CCCNC(=N)N)C(C)C)C(=O)N[C@H](CCCNC(=N)N)C(=O)N[C@@H](CCCNC(=N)N)C(=O)O` [Peptide G11.34, RrvSrrFMrR] (H-R[dR][dV]S[dR][dR]FM[dR]R-OH; N-terminus and C-terminus assumed), the “active in serum containing media” value in the assay with bacteria [1] was “active”. In addition, in the assay on Salmonella, the half-maximal inhibitory concentration (IC50) is 1600 nM and the “Salmonella MIC” value came to 2.8 µM. Besides, in the assay on B. cereus, the “B. cereus MIC” value was >10 µM and the concentration for half-maximal inhibition (IC50) was > 10000 nM. In the assay on E. coli DH5a, the “E. coli DH5a MIC” value is 0.7 µM and the 50% inhibitory concentration (IC50) turned out to be 410 nM. Also, the “Active in DMEM” value in the assay with bacteria [2] is listed as “YES”.

As for `CC(C)C[C@@H](NC(=O)[C@@H](CCCNC(=N)N)NC(=O)[C@@H](CCCNC(=N)N)NC(=O)[C@H]1CCCN1C(=O)[C@@H](CCCNC(=N)N)NC(=O)[C@@H](CCCNC(=N)N)NC(=O)[C@@H](CO)NC(=O)[C@@H](CCCNC(=N)N)NC(=O)[C@@H](Cc1ccc(O)cc1)NC(=O)[C@@H](CCCNC(=N)N)NC(=O)[C@@H](CCCNC(=N)N)NC(=O)[C@H]1CCCN1C(=O)[C@H]1CCCN1C(=O)[C@H]1CCCN1C(=O)[C@@H](CCCNC(=N)N)NC(=O)[C@@H](CO)NC(=O)[C@H](NC(=O)[C@@H](CCCNC(=N)N)NC(=O)[C@H](N)CCCNC(=N)N)C(C)C)C(=O)N[C@@H](C(=O)O)C(C)C` [Peptide G12.25, rrvsrppprryrsrrprrlv] (H-[dR][dR][dV][dS][dR][dP][dP][dP][dR][dR][dY][dR][dS][dR][dR][dP][dR][dR][dL][dV]-OH; N-terminus and C-terminus assumed), in the assay with Salmonella, the IC50 worked out at 100 nM and the “Salmonella MIC” value was 1.25 µM. In the assay with B. cereus, the “B. cereus MIC” value is “<.078 µM” and the IC50 is < 78 nM. Also, in the assay with E. coli DH5a, the “E. coli DH5a MIC” value amounted to 0.15 µM and the IC50 is < 78 nM. Also, in the assay with bacteria [2], the “Active in DMEM” value is reported as “YES” and the “antimicrobial / antibacterial activity” value is “has lost much of its antibacterial activity”.

`CSCC[C@@H](NC(=O)[C@H]1CCCN1C(=O)[C@H]1CCCN1C(=O)[C@@H](CCCNC(=N)N)NC(=O)[C@@H](CO)NC(=O)[C@H](NC(=O)[C@@H](CCCNC(=N)N)NC(=O)[C@H](N)CCCNC(=N)N)C(C)C)C(=O)N[C@H](CCCNC(=N)N)C(=O)N[C@H](CCCNC(=N)N)C(=O)N[C@H](Cc1ccc(O)cc1)C(=O)N[C@H](CCCNC(=N)N)C(=O)N[C@H](CO)C(=O)N[C@H](CCCNC(=N)N)C(=O)N[C@H](CCCNC(=N)N)C(=O)N1CCC[C@@H]1C(=O)N[C@H](CCCNC(=N)N)C(=O)N[C@H](CCCNC(=N)N)C(=O)N[C@H](CC(C)C)C(=O)N[C@@H](C(=O)O)C(C)C` [Peptide G12.26, rrvsrppmrryrsrrprrlv] (H-[dR][dR][dV][dS][dR][dP][dP][dM][dR][dR][dY][dR][dS][dR][dR][dP][dR][dR][dL][dV]-OH; N-terminus and C-terminus assumed): in the assay with Salmonella, inhibition was half-maximal at 100 nM (IC50) and the “Salmonella MIC” value was found to be 0.3 µM. Further, in the assay on B. cereus, the “B. cereus MIC” value came to 0.35 µM and the IC50 was < 78 nM. In the assay with E. coli DH5a, the “E. coli DH5a MIC” value was “<.078 µM” and the IC50 is < 78 nM. Besides, in the assay with bacteria [2], the “Active in DMEM” value is reported as “YES” and the “antimicrobial / antibacterial activity” value is “loses some antibacterial activity compared to G12.21”.

As to “GRSRWRRVSRRFMRR [Peptide G14.11, GRSRWRRVSRRFMRR]”, in the assay with Salmonella, the IC50 was 440 nM and the “Salmonella MIC” value was determined as 0.65 µM. In the assay with B. cereus, the “B. cereus MIC” value is 0.7 µM and the IC50 was found to be 450 nM. Also, in the assay on E. coli DH5a, the “E. coli DH5a MIC” value worked out at 0.7 µM and the IC50 was 450 nM. In addition, in the assay on bacteria [2], the “Active in DMEM” value is listed as “YES”.

Turning to “QRSVSRAATRVSRTGRSRWRRVSRRFMRR [Peptide G8.9]”, in the assay on Salmonella, the IC50 is 220 nM and the “Salmonella MIC” value amounted to 0.35 µM. Further, in the assay with B. cereus, the “B. cereus MIC” value amounted to 0.7 µM and the IC50 amounted to 450 nM. For the same molecule, in the assay on E. coli DH5a, the “E. coli DH5a MIC” value amounted to 0.7 µM and inhibition was half-maximal at 450 nM (IC50). For the same molecule, in the assay on bacteria [2], the “Active in DMEM” value is listed as “YES”.

“QRSVSRPPTRVSRTGRSRWRDVSRRFMRR [Peptide G8.12]”: in the assay with Salmonella, half-maximal inhibition (IC50) was put at 210 nM and the “Salmonella MIC” value worked out at 0.35 µM. Moreover, in the assay on B. cereus, the “B. cereus MIC” value was found to be 0.35 µM and half-maximal inhibition (IC50) required 210 nM. Also, in the assay on E. coli DH5a, the “E. coli DH5a MIC” value came out at 0.35 µM and the IC50 amounted to 210 nM. For the same molecule, the “Active in DMEM” value with bacteria [2] is recorded as “YES”.

With “RRVSRRFMRRD-NH2 [G11.30 CYC, RRVSRRFMRRD]”, in the assay with bacteria [1], the “active in serum containing media” value is given as “active”. In addition, in the assay with Salmonella, the midpoint of inhibition, the IC50, lay at 7700 nM and the “Salmonella MIC” value was >10 µM. Also, in the assay with B. cereus, the “B. cereus MIC” value was >10 µM and it took 7550 nM to reach half-maximal inhibition (IC50). Moreover, in the assay with E. coli DH5a, the “E. coli DH5a MIC” value amounted to 5.7 µM and the IC50 turned out to be 3500 nM.

The term IC50 denotes the midpoint of a concentration-inhibition curve.
